Experimental data as given in ChEMBL document CHEMBL1146413, “New polyhalogenated monoterpenes from the sea hare Aplysia punctata” (1997).
In brackets after ≈: the same amount, converted by molar mass.

Legend:
Type in all cases: functional
Conditions in all cases: read-out: ED50 (the source's name)
P388 = assay: Cytotoxicity against mouse P388 cells
HT-29 = assay: Cytotoxicity against human HT-29 cells
A549 = assay: Cytotoxicity against human A549 cells
SK-MEL-28 = assay: Cytotoxicity against human SK-MEL-28 cells

| Compound | EC50 (P388) [µg/mL] | EC50 (HT-29) [µg/mL] | EC50 (A549) [µg/mL] | EC50 (SK-MEL-28) [µg/mL] |
| --- | --- | --- | --- | --- |
| CC(=O)OCCC(C)C(=O)CC/C(=C/Cl)C(Cl)Cl (configuration not stated) | 2.5 (≈ 7.92 µM) | 2.5 (≈ 7.92 µM) | 1.5 (≈ 4.75 µM) | 1.5 (≈ 4.75 µM) |
| CC(=O)OCCC(C)C(=O)CC/C(=C\Cl)C(Cl)Cl (configuration not stated) | 2.5 (≈ 7.92 µM) | 2.5 (≈ 7.92 µM) | 1.5 (≈ 4.75 µM) | 1.5 (≈ 4.75 µM) |
| CC(=O)OCC/C(C)=C(Cl)/C=C/C(C)(Cl)CBr (configuration not stated) | 2.5 (≈ 7.27 µM) | 2.5 (≈ 7.27 µM) | 1.5 (≈ 4.36 µM) | 1.5 (≈ 4.36 µM) |
